Measured values as given in ChEMBL document CHEMBL1132443, “Antimalarial, antiproliferative, and antitumor activities of artemisinin-derived, chemically robust, trioxane dimers” (J Med Chem, 1999).

What follows are compounds tested on Plasmodium falciparum (assay: In vitro antimalarial activity against chloroquine-sensitive Plasmodium falciparum NF54).
Format: functional, organism-based
With `C[C@H]1[C@@H](C#Cc2ccc(C#C[C@H]3O[C@@H]4O[C@]5(C)CC[C@H]6[C@H](C)CC[C@@H]([C@H]3C)[C@@]46OO5)cc2)O[C@@H]2O[C@]3(C)CC[C@H]4[C@H](C)CC[C@@H]1[C@@]24OO3` the IC50 was 30 nM.
With `C[C@@H]1CC[C@H]2[C@@H](C)C(=O)O[C@@H]3O[C@@]4(C)CC[C@@H]1[C@]32OO4` [ARTEMISININ] the IC50 was 9.7 nM.
Work on `C[C@H]1[C@H](c2ccc([C@@H]3O[C@@H]4O[C@]5(C)CC[C@H]6[C@H](C)CC[C@@H]([C@H]3C)[C@@]46OO5)o2)O[C@@H]2O[C@]3(C)CC[C@H]4[C@H](C)CC[C@@H]1[C@@]24OO3` yielded an IC50 of 3.2 nM.
With `C[C@H]1[C@@H](CC(=O)c2ccc(C(=O)C[C@H]3O[C@@H]4O[C@]5(C)CC[C@H]6[C@H](C)CC[C@@H]([C@H]3C)[C@@]46OO5)cc2)O[C@@H]2O[C@]3(C)CC[C@H]4[C@H](C)CC[C@@H]1[C@@]24OO3` the IC50 was 1.9 nM.
With `COc1cc(OC)c([C@@H]2O[C@@H]3O[C@]4(C)CC[C@H]5[C@H](C)CC[C@@H]([C@H]2C)[C@@]35OO4)cc1[C@@H]1O[C@@H]2O[C@]3(C)CC[C@H]4[C@H](C)CC[C@@H]([C@H]1C)[C@@]24OO3` the IC50 was 1.3 nM.
With `C[C@H]1[C@@H](CC(=O)c2cccc(C(=O)C[C@H]3O[C@@H]4C[C@]5(C)CC[C@H]6[C@H](C)CC[C@@H]([C@H]3C)[C@@]46OO5)c2)O[C@@H]2C[C@]3(C)CC[C@H]4[C@H](C)CC[C@@H]1[C@@]24OO3` the IC50 was 1.9 nM.
`C[C@H]1[C@@H](C#Cc2cccc(C#C[C@H]3O[C@@H]4O[C@]5(C)CC[C@H]6[C@H](C)CC[C@@H]([C@H]3C)[C@@]46OO5)c2)O[C@@H]2O[C@]3(C)CC[C@H]4[C@H](C)CC[C@@H]1[C@@]24OO3` showed an IC50 of 36 nM.
